# Results as given in PubChem BioAssay (NCI).
# Values joined by “and” are separate entries in the source; they are usually repeats but may differ in a detail not shown here. Equal values may be shown once.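 Values below derive from 48-hour exposures of cells grown in 96-well plates, with endpoints linearly interpolated between the two concentrations bracketing the appropriate inhibition level. The concentration for 50% growth inhibition is given as GI50. TGI denotes the concentration required for complete inhibition of growth.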
# Assays:
# Assay in all cases: DTP human tumour cell line panel, 48 h
# A498 renal = system: A498 renal
# HCT-15 colon = system: HCT-15 colon
# HOP-92 NSCLC = system: HOP-92 NSCLC
# IGROV1 ovarian = system: IGROV1 ovarian
# K-562 leukemia = system: K-562 leukemia
# MCF7 breast = system: MCF7 breast
# MOLT-4 leukemia = system: MOLT-4 leukemia
# RXF 393 renal = system: RXF 393 renal
# SK-MEL-28 melanoma = system: SK-MEL-28 melanoma
# SK-MEL-5 melanoma = system: SK-MEL-5 melanoma
Compound,TGI (A498 renal) [µM],TGI (HCT-15 colon) [µM],TGI (HOP-92 NSCLC) [µM],TGI (IGROV1 ovarian),TGI (K-562 leukemia) [µM],TGI (MCF7 breast),TGI (MOLT-4 leukemia) [µM],TGI (RXF 393 renal) [µM],TGI (SK-MEL-28 melanoma),TGI (SK-MEL-5 melanoma) [µM],GI50 (IGROV1 ovarian) [µM],GI50 (MOLT-4 leukemia) [µM],GI50 (SK-MEL-28 melanoma) [µM]
COc1cccc(/C=C/C2=NN(c3cccc(S(=O)(=O)O)c3)C3(C2)SCC(=O)N3c2nc3ccccc3s2)c1 (configuration not stated),> 100,> 100,> 100,> 100 µM,> 100,> 100 µM,81.3,> 100,> 100 µM,> 100,,,
CC1(C)N=C(N)N=C(N)N1c1cccc(CSc2ccccc2)c1,> 100,> 100,> 100,25 µM,> 100,> 100 µM,> 100,95.9,> 100 µM,13.5,,,
CCN(CC)C(=O)CCCCCCCCC1CO1 (configuration not stated),> 100,> 100,> 100,> 100 µM,> 100,> 100 µM,> 100,> 100,> 100 µM,> 100,,,
COc1ccc(-c2cn3c(n2)sc2cc(C)ccc23)cc1,47.4,> 100,20.8,42.1 µM,> 100,95.7 µM,> 100,35.8,> 100 µM,14.3,,,
COC1C(O)=C2C(=O)OC(C)(O)/C=C/C=C\C=C/C=C/C(c3ccccc3)NC(=O)/C=C/C=C/C=C/C=C/C2(C)C1O (configuration not stated),0.0976,0.0526,0.00909,0.15 µM and 0.168 µM,> 100,0.0273 µM and 0.169 µM,,0.0425,0.175 µM and 0.927 µM,0.164,0.0303,0.0697,0.257
COC(=O)c1c(O)ccc2c1c1c(n2C)C(=O)c2ccccc2C1=O,> 100,> 100,21,21.8 µM,> 100,> 100 µM,22.8,42,> 100 µM,> 100,,,
COC(=O)C(Cc1ccccc1)NC(=O)CNC(=O)CSc1nnc(COc2ccc(Cl)cc2)n1-c1ccccc1 (configuration not stated),29.4,36.4,35.3,29.1 µM,> 75.6,35.5 µM,> 24.2,33.1,34.6 µM,29.8,,,
COc1cccc(C2c3cc4c(cc3OC(N3CCOCC3)C2C)OCO4)c1O (configuration not stated),20.8,27.9,71.4,53.7 µM,38.1,> 44.2 µM,42.2,9.43,> 61.8 µM,18.4,,,
c1ccc2c(c1)SC1Sc3ccccc3[S+]21 (configuration not stated),> 100,> 79.5,69.9,50.5 µM,> 23.3,> 69.2 µM,47.8,> 73.1,41.4 µM,22.7,,,
CCCCCc1c(CCCC)c(=O)[nH]c2cc(CNCC(OC)OC)ccc12,28.9,23.8,16.5,29.6 µM,5.63,27.8 µM,20.6,27.1,12.2 µM,21,,,
NC1CCC(c2cc3ccccc3s2)(N2CCCCC2)CC1 (configuration not stated),22.9,3.76,5.15,3.26 µM,3.44,3.05 µM,3.25,21.2,3.11 µM,4.16,,,
Cn1c(N/N=C/c2ccc(Cl)cc2)nc(-c2ccc(Cl)cc2)c(C#N)c1=O,93.5,> 100,57.7,25.6 µM,> 100,67.8 µM,> 100,57.8,> 100 µM,> 100,,,
Cc1nc2ccccc2n1CCc1nc2ccccc2s1,> 100,> 100,> 100,> 100 µM,> 100,> 100 µM,53.6,> 100,> 100 µM,23.6,,,
CN(C)CCCOC(=O)C(O)(Cc1ccccc1)C1CC1 (configuration not stated),> 100,> 100,> 100,> 100 µM,> 100,> 100 µM,> 100,> 100,> 100 µM,> 100,,,
CC[C@H]1C=CCC[C@@]2(C[C@@H]3CC[C@@H]4[C@H](C(=O)OCCCCCCCCCCCCCCCC(=O)N(CCCN)C[C@@H](O)CCN)[C@]5(CCC[C@@H](C)O5)NC(=[N+]34)N2)O1,1.74,> 10,1.01,> 3.82 µM,0.565,1.71 µM,0.524,2.38,2.9 µM,0.173,,,
COC(=O)/C=C1/OC(c2ccccc2)=C(Cl)C1=O,68.2,25.4,42.7,55.8 µM,25.9,37.5 µM,18.1,35.9,42.5 µM,28.7,,,
O=C1/C(=C/c2cccs2)N=C(c2ccccc2)N1C1Nc2cc3c(cc2S1)NC(N1C(=O)/C(=C/c2cccs2)N=C1c1ccccc1)S3 (configuration not stated),> 100,34.7,> 100,> 100 µM,> 100,> 100 µM,59.6,78.8,> 100 µM,37.4,,,
